Values after ≈ are worked out from the molar mass of the structure shown. Where two headings read alike, the source gives them in different places.
How the values were obtained:
A. niger (MTCC 1688) = assay: Antifungal MIC, broth microdilution; assay type: cell-based, Aspergillus niger; settings: for MIC: read-out: MIC (µM) A. niger
Method: (§1) The serial dilution technique was utilized to evaluate the antimicrobial activity of synthesized derivatives against Gram-negative, Gram-positive, and fungal strains. […] To dissolve the reference and sample derivatives, DMSO was employed as a solvent. The synthesized compounds were evaluated for their antibacterial effectiveness against E. coli, P. aeruginosa, and S. aureus, and their antifungal potential was tested against Candida albicans and Aspergillus niger.
(§2) The antibacterial and antifungal activity of potential synthesized compounds was evaluated using the broth microdilution method to determine their minimum inhibitory concentration (MIC). […] Individual MIC (µM) values were determined using serial dilution technique with Mueller–Hinton Broth (MHB) media for bacterial growth and Roswell Park Memorial Institute (RPMI) media for fungal growth. […] The turbidity of the spore suspension was corrected to 0.5 McFarland by adding distilled water. Stock solutions of synthesized compounds were prepared in DMSO solvent and serially diluted to determine the MIC value. Each spore (0.1 mL) was put into each well holding the finally serially diluted synthesized compound concentration, standards, and controls. […] Agar plate spotting was carried out for each spore and incubated for 24 h at 37 ± 1 °C (for bacteria spores), 48 h at 37 ± 1 °C (for C. albicans), and 7 days at 25 ± 1 °C (for A. niger) to determine CFU. To assess reproducibility, duplicate tests were performed on three separate days.

[1] = test system: C. albicans (ATCC SC5314); assay: Antifungal MIC, broth microdilution; assay type: cell-based, Candida albicans; settings: for MIC: read-out: MIC (µM) C. albicans
Method: as §1, §2

DHFR = biological target: T1, DHFR (Homo sapiens, UniProt P00374); assay: In vitro DHFR inhibition assay (DHFR assay kit CS0340, spectrophotometric, 340 nm); assay type: biochemical
T1 construct: purchased Sigma-Aldrich CS0340
T1 sequence (P00374 1-187): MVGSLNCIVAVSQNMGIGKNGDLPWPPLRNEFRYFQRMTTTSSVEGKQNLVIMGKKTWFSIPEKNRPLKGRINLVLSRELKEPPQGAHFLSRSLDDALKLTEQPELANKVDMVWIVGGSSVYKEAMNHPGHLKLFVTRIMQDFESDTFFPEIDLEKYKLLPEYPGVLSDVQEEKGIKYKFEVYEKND
Method: This assessment was carried out using the DHFR assay kit (catalog number CS0340, Sigma-Aldrich, Burlington, MA, USA) by using a spectrophotometric method. The enzymatic […] of dihydrofolic acid to tetrahydrofolic acid was monitored at 340 nm for 180 s, following the procedure recommended by the manufacturer of the assay kit. […] To evaluate the ability of the synthesized derivatives to block DHFR activity, a spectrophotometric assay technique was utilized at 340 nm for 180 seconds to detect the enzyme-catalyzed conversion of dihydrofolic acid to tetrahydrofolic acid. The DHFR assay kit (Sigma-Aldrich, catalog number CS0340) was used in this assay. The kit was tested using recombinant DHFR, NIH 3T3, A431, and CHO cell lines, as well as rat kidney, brain, liver, and muscle tissue extracts. Dihydrofolic acid, NADPH, standard drug solution, assay buffer, and DHFR stock solutions were prepared according to the instructions given in the technical bulletin that came along with the test kit. Except for the assay buffer, all stock solutions were stored on ice.
Each well of a 96-well clear microplate was filled with a calculated amount of assay buffer (190 μL), followed by 6 μL of diluted DHFR, which was thoroughly mixed. […] The microplate was then covered with parafilm, and the contents were mixed by inversion. Following the addition of 1 μL of substrate dihydrofolic acid, the absorbance was measured at 340 nm over a period of 180 s using an ELISA reader (Gen BioTek Microplate Reader, Winooski, VT, USA) in kinetic mode at room temperature. Plotting the relationship between absorbance and time generates the slope for each test inhibitor sample. The relative inhibition percentages were calculated using Equation (1). % relative inhibition = (slope of [EC] − slope of [S]/slope of [EC]) × 100(1) where S is the sample of interest, EC (enzyme control).

E. coli (ATCC 25922) = assay: Antibacterial MIC, broth microdilution; assay type: cell-based, Escherichia coli; settings: read-out: MIC (µM) E. coli
Method: as §1, §2

[2] = test system: P. aeruginosa (ATCC 27853); assay: Antibacterial MIC, broth microdilution; assay type: cell-based, Pseudomonas aeruginosa; settings: read-out: MIC (µM) P. aeruginosa
Method: as §1, §2

[3] = test system: S. aureus (ATCC FDA209-P); assay: Antibacterial MIC, broth microdilution; assay type: cell-based, Staphylococcus aureus; settings: read-out: MIC (µM) S. aureus
Method: as §1, §2

[4] = test system: MCF-7 breast cancer cell line; assay: Anticancer activity (MTT assay); assay type: cell-based; settings: Homo sapiens
Method: The anticancer potential of synthesized derivatives was assessed by targeting the MCF-7 breast cancer cell line.
The potential newly synthesized derivatives were evaluated for their cytotoxic activity on the MCF-7 cell line (sourced from NCCS in Pune, India) using the MTT (3-[4,5-dimethylthiazol-2-yl]-2,5-diphenyl tetrazolium bromide) assay. To perform the assay, 10,000 cells were placed in each well of 96-well plates and left to incubate for 24 h in Dulbecco’s Modified Eagle Medium (DMEM). The medium was supplemented with 1% antibiotic solution and 10% FBS (fetal bovine serum), and the incubation occurred at a temperature of 37 °C in an environment containing 5% CO2. […] The cultures were then subjected to additional 2 h incubation. Upon concluding the experiment, the culture supernatant was extracted, and the cellular matrix was dissolved in 100 µL of DMSO. The absorbance of the resulting solution underwent evaluation using an ELISA plate reader (iMark, Biorad, Hercules, CA, USA) at 540 nm. Triplicate measurements were performed to enhance the reliability and reproducibility of the results obtained.

[5] = read-out: DHFR Inhibition IC50 (µM) ± SD, n = 3, 180 s
[6] = Escherichia coli, ATCC25922, MHB, 37 °C, 24 h
[7] = Pseudomonas aeruginosa, ATCC27853, MHB, 37 °C, 24 h
[8] = Staphylococcus aureus, FDA209, MHB, 37 °C, 24 h
[9] = Candida albicans, SC5314, RPMI, 37 °C, 48 h
[10] = MCF7, read-out: Anticancer IC50 (µM), n = 3, MCF-7, MTT, 24 h
[11] = Aspergillus niger, MTCC1688, 168 h, RPMI, 25 °C, 7 days
[12] = MCF7, 24 h, read-out: Anticancer IC50 (µM), n = 3

Compound	MIC (E. coli (ATCC 25922); [6]) [µM]	MIC [2, 7] [µM]	MIC [3, 8] [µM]	MIC [1, 9] [µM]	MIC (A. niger (MTCC 1688); [11]) [µM]	other results
4-(2-(4-((2,4-dichlorocyclohexa-1,5-dienyl)methyleneamino)-5-mercapto-4H-1,2,4-triazol-3-yl)vinyl)benzene-1,2-diol [CTh10]						MIC (A. niger (MTCC 1688); RPMI, 25 °C, 7 days): 39 µM; MIC ([1]; RPMI, 37 °C, 48 h): 39 µM; IC50 (DHFR; [5]): 11.3 ± 0.92 µM; MIC (E. coli (ATCC 25922); MHB, 37 °C, 24 h): 39 µM; MIC ([2]; MHB, 37 °C, 24 h): 39 µM; MIC ([3]; MHB, 37 °C, 24 h): 19 µM
CC1(C)S[C@@H]2[C@H](NC(=O)[C@H](N)c3ccccc3)C(=O)N2[C@H]1C(=O)O [Ampicillin, reference compound]	11 (≈ 3.84 µg/mL)	22 (≈ 7.69 µg/mL)	11 (≈ 3.84 µg/mL)			
COc1ccc(C=Nn2c(S)nnc2C=Cc2ccc(O)c(O)c2)cc1 [CTh1, 4-(2-(4-(4-methoxybenzylideneamino)-5-mercapto-4H-1,2,4-triazol-3-yl)vinyl)benzene-1,2-diol]	86 (≈ 31.7 µg/mL)	86 (≈ 31.7 µg/mL)	43 (≈ 15.8 µg/mL)	173 (≈ 63.7 µg/mL)		MIC (µM) A. niger (A. niger (MTCC 1688); RPMI, 25 °C, 7 days): -; IC50 (DHFR; 180 s): 17 ± 1.1 µM; IC50 [4, 10]: 148 ± 11.4 µM
O=[N+]([O-])c1cccc(C=Nn2c(S)nnc2C=Cc2ccc(O)c(O)c2)c1 [CTh3, 4-(2-(4-(3-nitrobenzylideneamino)-5-mercapto-4H-1,2,4-triazol-3-yl)vinyl)benzene-1,2-diol]	10 (≈ 3.83 µg/mL)	10 (≈ 3.83 µg/mL)	5 (≈ 1.92 µg/mL)	20 (≈ 7.67 µg/mL)	83 (≈ 31.8 µg/mL)	
Oc1ccc(C=Nn2c(S)nnc2C=Cc2ccc(O)c(O)c2)cc1 [CTh4, 4-(2-(4-(4-hydroxylbenzylideneamino)-5-mercapto-4H-1,2,4-triazol-3-yl)vinyl)benzene-1,2-diol]	5 (≈ 1.77 µg/mL)	5 (≈ 1.77 µg/mL)	22 (≈ 7.8 µg/mL)	11 (≈ 3.9 µg/mL)		MIC (µM) A. niger (A. niger (MTCC 1688); RPMI, 25 °C, 7 days): -; IC50 [4, 12]: 122 ± 7.3 µM
O=[N+]([O-])c1ccccc1C=Nn1c(S)nnc1C=Cc1ccc(O)c(O)c1 [CTh6, 4-(2-(4-(2-nitrobenzylideneamino)-5-mercapto-4H-1,2,4-triazol-3-yl)vinyl)benzene-1,2-diol]						MIC (A. niger (MTCC 1688); Aspergillus niger, MTCC1688, 168 h): 83 µM (≈ 31.8 µg/mL); MIC ([1]; Candida albicans, SC5314, 48 h): 41 µM (≈ 15.7 µg/mL); IC50 (DHFR; 180 s): 10.5 ± 0.7 µM; MIC (E. coli (ATCC 25922); Escherichia coli, ATCC25922, 24 h): 20 µM (≈ 7.67 µg/mL); IC50 [4, 12]: 89.2 ± 4.17 µM; MIC ([2]; Pseudomonas aeruginosa, ATCC27853, 24 h): 10 µM (≈ 3.83 µg/mL); MIC ([3]; Staphylococcus aureus, FDA209, 24 h): 10 µM (≈ 3.83 µg/mL)
Oc1ccc(/C=C/c2nnc(S)n2/N=C/c2cc3ccccc3cc2O)cc1O [CTh7, 4-(2-(4-(4-naphthalen-2-ol)-5-mercapto-4H-1,2,4-triazol-3-yl)vinyl)benzene-1,2-diol]	39 (≈ 15.8 µg/mL)	19 (≈ 7.68 µg/mL)	19 (≈ 7.68 µg/mL)			MIC (µM) A. niger (A. niger (MTCC 1688); RPMI, 25 °C, 7 days): -; MIC (µM) C. albicans ([1]; RPMI, 37 °C, 48 h): -; IC50 (DHFR; 180 s): 0.15 ± 0.02 µM; IC50 [4, 10]: 8.53 ± 0.19 µM
Nn1c(S)nnc1C=Cc1ccc(O)c(O)c1 [CTh]						MIC (A. niger (MTCC 1688); RPMI, 25 °C, 7 days): 127 µM (≈ 31.8 µg/mL); MIC (µM) C. albicans ([1]; RPMI, 37 °C, 48 h): -; IC50 (DHFR; [5]): 16.9 ± 1.2 µM; MIC (E. coli (ATCC 25922); MHB, 37 °C, 24 h): 255 µM (≈ 63.8 µg/mL); MIC ([2]; MHB, 37 °C, 24 h): 127 µM (≈ 31.8 µg/mL); MIC ([3]; MHB, 37 °C, 24 h): 63 µM (≈ 15.8 µg/mL)
OC(Cn1cncn1)(Cn1cncn1)c1ccc(F)cc1F [Fluconazole, reference compound]				0.81 (≈ 0.248 µg/mL)	260 (≈ 79.7 µg/mL)	
CN(C)[C@@H]1C(O)=C(C(N)=O)C(=O)[C@@]2(O)C(O)=C3C(=O)c4c(O)cccc4[C@@](C)(O)[C@H]3C[C@@H]12 [Tetracycline, reference compound]	36 (≈ 16 µg/mL)	36 (≈ 16 µg/mL)	144 (≈ 64 µg/mL)			
COc1cc(Cc2cnc(N)nc2N)cc(OC)c1OC [Trimethoprim, reference compound]	31 (≈ 9 µg/mL)	31 (≈ 9 µg/mL)	63 (≈ 18.3 µg/mL)	255 (≈ 74 µg/mL)	127 (≈ 36.9 µg/mL)	
C[C@@H](c1ncncc1F)[C@](O)(Cn1cncn1)c1ccc(F)cc1F [Voriconazole, reference compound]				0.34 (≈ 0.119 µg/mL)	5 (≈ 1.75 µg/mL)	
COc1cccc2c1C(=O)c1c(O)c3c(c(O)c1C2=O)C[C@@](O)(C(=O)CO)C[C@@H]3O[C@H]1C[C@H](N)[C@H](O)[C@H](C)O1 [doxorubicin, reference compound]						IC50 [4, 10]: 3.62 µM

Reference: PMC11200944, “Hybrid Caffeic Acid-Based DHFR Inhibitors as Novel Antimicrobial and Anticancer Agents” (Antibiotics, 2024)
